# Source: patent publication US9359399B2, “Synthetic peptide amides” (Cara Therapeutics, Inc., priority 2006, dated 2016)
# Square brackets hold non-standard residues; d marks the D form. Peptide text beside a SMILES is read from it. * marks the point of attachment. Piperidinyl(4-(1-Pro-OH)) = O=C(O)[C@@H]1CCCN1C1CCN(*)CC1; dDab = NCC[C@@H](N)C(=O)O
# How the values were obtained:
# [1] = biological target: mouse kappa opioid receptor (mKOR) (Mus musculus (Mouse), UniProt P33534); test: cell-based; conditions: read-out: mKOR Efficacy(%)
# CYP1A = test: Cytochrome P450 CYP1A inhibition in human liver microsomes (ethoxyresorufin); type: in vitro ADME; conditions: percent remaining CYP activity, 10 uM test compound, 15 minutes
# Procedure: Inhibition of cytochrome P450 oxidase isozymes CYP1A, CYP2C9, CYP2C19, CYP2D6 and CYP3A4 by synthetic peptide amide compounds of the invention was determined according to the following methods performed by Cerep (Seattle, Wash.):
# In the cytochrome P450 CYP1A assay, human liver microsomes (0.2 mg/ml protein) were incubated for 15 minutes at 37° C. with 10 uM test compound, 1 uM ethoxyresorufin, 1.3 mM NADP, 3.3 mM glucose-6-phosphate and 0.4 U/ml glucose-6-phosphate dehydrogenase. In the absence of test compound, the ethoxyresorufin added as substrate is oxidized to resorufin, and in the presence of an inhibitor of the CYP isozyme, the amount of resorufin produced is reduced. Furafylline was used as a reference inhibitor.
# In each assay, the percent inhibition of the cytochrome P450 CYP P450 isozyme was determined as one hundred times the ratio of (1—the amount of product in the sample in the presence of the test compound) divided by the amount of product in the sample containing untreated isozyme.
# [2] = Pharmacokinetics in ICR mice after subcutaneous injection; conditions: mouse, in vivo, sc, 1 mg/kg, time for plasma concentration to fall by 50% after maximum
# Procedure: A single bolus of the synthetic peptide amide compound was administered by subcutaneous injection to ICR mice (n=6, males, body wt 23-37 g, Charles River, Wilmington, Mass.) and plasma samples taken at 5, 10, 15, 20, 30 60, 90, 120, and 180 minutes post-injection.
# Quantitation was performed against a calibration curve of the analyte in blank Cynomolgus monkey plasma using the same internal standard. Data analysis and the extraction of pharmacokinetic parameters were performed with the program PK Solutions 2.0 (Summit Research Services, Ashland, Ohio, USA).
# [3] = Pharmacokinetics in cynomolgus monkeys after intravenous bolus; conditions: cynomolgus monkey, in vivo
# CYP3A4 = CYP3A4 (Homo sapiens (Human), UniProt P08684); test: Cytochrome P450 CYP3A4 inhibition in human liver microsomes (midazolam); conditions: percent remaining CYP activity, 10 uM test compound, 20 minutes
# CYP2C9 = CYP2C9 (Homo sapiens (Human), UniProt P11712); test: Cytochrome P450 CYP2C9 inhibition in human liver microsomes (tolbutamide); conditions: percent remaining CYP activity, 10 uM test compound, 15 minutes
# CYP2C19 = CYP2C19 (Homo sapiens (Human), UniProt P33261); test: Cytochrome P450 CYP2C19 inhibition in human liver microsomes (omeprazole); conditions: percent remaining CYP activity, 10 uM test compound, 15 minutes
# CYP2D6 = CYP2D6 (Homo sapiens (Human), UniProt P10635); test: Cytochrome P450 CYP2D6 inhibition in human liver microsomes (dextromethorphan); conditions: percent remaining CYP activity, 10 uM test compound, 15 minutes
# [4] = Membrane permeability assay, Caco-2 TC7 monolayers, apical-to-basolateral (Cerep); conditions: human
# in vitro = conditions: human, Caco-2
# [5] = tested on: capsaicin-induced ocular pain; test: Capsaicin-induced ocular pain, palpebral opening in rabbits; type: in vivo, albino New Zealand strain rabbits; conditions: 10-30 min. post capsaicin
# [6] = biological target: human kappa opioid receptor (hKOR) (Homo sapiens (Human), UniProt P41145); test: cell-based; conditions: HEK293, read-out: hKOR Efficacy(%)
# [7] = tested on: acetic acid-induced writhing in mice; test: Acetic acid-induced writhing assay in mice; type: in vivo, ICR mice; conditions: ICR mice, administered subcutaneously
# Procedure: 12: 525-562; Ramabadran and Bansinath (1986) Pharm. Res. 3: 263-270]. Intraperitoneal administration of dilute acetic acid solution causes a writhing behavior in mice. A writhe is defined as a contraction of the abdominal muscles accompanied by an extension of the forelimbs and elongation of the body. The number of writhes observed in the presence and absence of test compounds is counted to determine the analgesic activity of the compounds.
# Each day a writhing assay was performed, a vehicle control group of mice (n=6-8) that were treated identically to the test group (except that test compound was omitted from the injection dose) was always included and the average total number of writhes in this group used as the absolute reference point defining 0% decrease in pain perception for all other mice receiving a test compound on that day. Specifically, the total number of writhes of each mouse receiving the test compound was converted to % decrease in pain perception according to the following equation:
# [formula] Where Wv is the mean number of writhes in vehicle-treated group and Wc is the number of writhes in compound-treated mouse.
# Male ICR mice, 23-37 grams in weight, were weighed and placed in individual observation chambers (usually a 4000 ml glass beaker) with a fine layer of SANI-CHIPS rodent bedding at the bottom. […] After administration of the compound or vehicle control, mice were returned to their individual observation chambers awaiting the intraperitoneal administration of acetic acid solution. […] and acetic acid injection, a dose corresponding to 10 ml/kg of a 0.6% (v/v) acetic acid solution was then injected into the right lower quadrant of the abdomen. Immediately after the injection, the mouse was returned to its observation chamber and the recording of the number of writhes begun immediately. The number of writhes was counted over a 15-min period starting from the time of acetic acid injection, the data being collected over three separate 5 minute time periods (0-5 min, 5-10 min, and 10-15 min).
# The data were reported as ED50, and Hill coefficient. […] The Hill coefficient is expressed as the arithmetic mean±sem calculated from the values obtained from the animals.
# For dose-response analysis, raw data were converted to % maximum possible effect (% MPE) using the formula: % MPE=((test score−vehicle-treated score)/(0−vehicle-treated score))*100. Raw data were analyzed using a one-way ANOVA followed by Dunnett's post-tests. […] Compounds were administered by the intravenous route.
# [8] = Inhibition of locomotion in mice (locomotion reduction assay, sedation); parameters: species or system ICR mice; conditions: mouse, in vivo, sc, administered subcutaneously, sedative effect
# Procedure: To determine the potential sedative effect of test compounds, the extent of locomotion reduction after the administration of the test compound or vehicle control can be determined and compared with a specialized apparatus designed for this purpose (Opto-Varimex Activity Meter). At the start of each experiment, each mouse was weighed and examined to determine good health. […] The subcutaneous injection was performed in the back of the neck of the mouse, pinched in a “tent” to allow proper access for the syringe needle. After injection, each animal was placed individually in Plexiglas boxes (43 cm×43 cm) inside the Opto-Varimex Activity Meter apparatus. Before the animal was placed in the apparatus, a thin layer of SANI-CHIPS rodent bedding was placed on the bottom of the Plexiglas box to provide a comfortable environment. Each Opto-Varimex Activity Meter apparatus was then turned on and data acquisition begun by the ATM3 Auto-Track System. The data were processed and results expressed in the same way as described for the writhing assay data in Example 47.
# Inhibition of acetic acid-induced writhing by a compound is an indication of an analgesic effect (also called an antinociceptive effect). Similarly, a reduction in locomotion caused by administration of the compound can be used as a measure of its general sedative effect.
smiles,measurement,setting,value
"CNCCCC[C@@H](NC(=O)[C@@H](CC(C)C)NC(=O)[C@@H](Cc1ccccc1)NC(=O)[C@H](N)Cc1ccccc1)C(=O)N1CCC(N2CCC[C@H]2C(=O)O)CC1 [Compound (6), D-Phe-D-Phe-D-Leu-(ε-Me)D-Lys-[N-(4-piperidinyl)-L-proline]-OH]",Emax,[1],89%
same,Percent Activity of CYP1A,CYP1A,89.5%
same,half-life,[2],22 min
same,half-life,[3],58.6 min
same,Percent Activity of CYP3A4,CYP3A4,93.6%
same,Percent Activity of CYP2C9,CYP2C9,92.1%
same,Percent Activity of CYP2C19,CYP2C19,97.2%
same,Percent Activity of CYP2D6,CYP2D6,93.9%
same,"Papp A→B at 60 min, 10 uM",[4],< 0.02 ×10⁻⁶ cm/s
"CNCCCC[C@@H](NC(=O)[C@@H](CC(C)C)NC(=O)[C@@H](Cc1ccccc1)NC(=O)[C@H](N)Cc1ccccc1)C(=O)N1CCCN(C(=N)N)CC1 [Compound (1), D-Phe-D-Phe-D-Leu-(ε-Me)D-Lys-[4-Amidinohomopiperazine amide]]",Percent Activity of CYP1A,CYP1A,89.8%
same,Percent Activity of CYP3A4,CYP3A4,92.5%
same,Percent Activity of CYP2C9,CYP2C9,93.2%
same,Percent Activity of CYP2C19,CYP2C19,98.5%
same,Percent Activity of CYP2D6,CYP2D6,96.0%
same,"Papp A→B at 60 min, 10 uM",[4],< 0.1 ×10⁻⁶ cm/s
"CC[C@]1(O)C[C@@H]2CN(CCc3c([nH]c4ccccc34)[C@@](C(=O)OC)(c3cc4c(cc3OC)N(C)[C@H]3[C@@](O)(C(=O)OC)[C@H](OC(C)=O)[C@]5(CC)C=CCN6CC[C@]43[C@@H]65)C2)C1 [Vinblastine, vinblastine]","Papp A→B at 60 min, 10 uM",in vitro,< 0.2 ×10⁻⁶ cm/s
"COc1ccc([C@@H]2Sc3ccccc3N(CCN(C)C)C(=O)[C@@H]2OC(C)=O)cc1 [Diltiazem, diltiazem, reference compound]",Mean palpebral opening (% Control),"[5]; Table VII, 10 mM, five animals",74.6 % Control
same,Mean palpebral opening (% Control),"[5]; Table VIII, 10 mM, ten animals",77.6 % Control
"CC(C)C[C@@H](NC(=O)[C@@H](Cc1ccccc1)NC(=O)[C@H](N)Cc1ccccc1)C(=O)N[C@H](CCCCNC(C)C)C(=O)N1CCC(N)(C(=O)O)CC1 [Compound (9), D-Phe-D-Phe-D-Leu-(8-iPr)D-Lys-[ω(4-aminopiperidine-4-carboxylic acid)]-OH]",Emax,[6],100%
"CC(CCc1ccccc1)NCC(O)c1ccc(O)c(C(N)=O)c1 (stereo not drawn) [Labetalol, labetalol]","Papp A→B at 60 min, 10 uM",in vitro,9.9 ×10⁻⁶ cm/s
"CC(C)NCC(O)COc1cccc2ccccc12 (stereo not drawn) [Propranolol, propranolol]","Papp A→B at 60 min, 10 uM",in vitro,53.8 ×10⁻⁶ cm/s
"CN1CC[C@]23c4c5ccc(O)c4O[C@H]2[C@@H](O)C=C[C@H]3[C@H]1C5 [Morphine, morphine, reference compound]",Mean palpebral opening (% Control),"[5]; Table VIII, 10 mg/ml, ten animals",74.8 % Control
"CN(C(=O)C(c1ccccc1)c1ccccc1)[C@H](CN1CC[C@H](O)C1)c1ccccc1 [Asimadoline, asimadoline, reference compound]","Papp A→B at 60 min, 10 uM",[4],37.5 ×10⁻⁶ cm/s
"CC(C)C[C@@H](NC(=O)[C@@H](Cc1ccccc1)NC(=O)[C@H](N)Cc1ccccc1)C(=O)N[C@H](CCN)C(=O)N1CCC(N2CCC[C@H]2C(=O)O)CC1 [Compound (12), D-Phe-D-Phe-D-Leu-D-Dbu4N-(4-piperidinyl)-L-prolinel-OH] (H-[dF][dF][dL][dDab]-{Piperidinyl(4-(1-Pro-OH))})",Emax,[6],100%
"CNCCCC[C@@H](NC(=O)[C@@H](CC(C)C)NC(=O)[C@@H](Cc1ccccc1)NC(=O)[C@H](N)Cc1ccccc1)C(=O)N1CCC(N)(C(=O)O)CC1 [Compound (3), D-Phe-D-Phe-D-Leu-(ε-Me)D-Lys-[ω(4-aminopiperidine-4-carboxylic acid)]-OH]",Percent Activity of CYP1A,CYP1A,93.1%
same,ED50 in the acetic acid-induced writhing assay,[7],0.052 mg/kg
same,ED50,[8],2.69 mg/kg
same,Mean palpebral opening (% Control),"[5]; Table VII, 10 mg/ml, five animals",76.0 % Control
same,Percent Activity of CYP3A4,CYP3A4,94.3%
same,Percent Activity of CYP2C9,CYP2C9,97.4%
same,Percent Activity of CYP2C19,CYP2C19,103.2%
same,Percent Activity of CYP2D6,CYP2D6,99.5%
same,"Papp A→B at 60 min, 10 uM",[4],< 0.02 ×10⁻⁶ cm/s
